Test results reported in article PMC12446003, “Pharmacological characterization of linaprazan glurate (X842), a novel potassium-competitive acid blocker, in vitro and in vivo” (Frontiers in Pharmacology, 2025).
Values joined by “and” are separate entries in the source; they are usually repeats but may differ in a detail not shown here. Equal entries are not always repeated. Where two headings read alike, the source gives them in different places.

What was measured:
[1] = tested on: gastric acid secretion in pylorus-ligated rats; experiment: Gastric acid inhibition in pylorus-ligated rats; type: in vivo; details: oral 2 mg/kg, pylorus-ligated rats, relative to vehicle
Experimental: The rats were fasted overnight with ad libitum access to water. Drugs and vehicle were administered orally to rats in a blinded manner. The pylorus was ligated under ether anesthesia within 1 h after drug and vehicle administration, and the abdomen was closed by suturing. At 4 h after pyloric ligation, the rats were sacrificed by CO2 asphyxiation, and the stomach was removed ([Hori et al., 2010]). The gastric contents were collected and centrifuged at 3,000 rpm for 10 min. The volume of each sample was measured, the gastric acid concentration was determined by acid-base titration, and the total acidity was calculated.

Gastric H+/K+-ATPase = target: T1, Gastric H+/K+-ATPase (Oryctolagus cuniculus, UniProt P27112); experiment: Inhibition of H+/K+-ATPase activity (Malachite Green Pi assay); type: biochemical, rabbit
T1 construct: Gastric H^+/K^+-ATPase was prepared from rabbit glands; from tissue; host or cells: rabbit gastric glands
T1 sequence (P27112 whole entry): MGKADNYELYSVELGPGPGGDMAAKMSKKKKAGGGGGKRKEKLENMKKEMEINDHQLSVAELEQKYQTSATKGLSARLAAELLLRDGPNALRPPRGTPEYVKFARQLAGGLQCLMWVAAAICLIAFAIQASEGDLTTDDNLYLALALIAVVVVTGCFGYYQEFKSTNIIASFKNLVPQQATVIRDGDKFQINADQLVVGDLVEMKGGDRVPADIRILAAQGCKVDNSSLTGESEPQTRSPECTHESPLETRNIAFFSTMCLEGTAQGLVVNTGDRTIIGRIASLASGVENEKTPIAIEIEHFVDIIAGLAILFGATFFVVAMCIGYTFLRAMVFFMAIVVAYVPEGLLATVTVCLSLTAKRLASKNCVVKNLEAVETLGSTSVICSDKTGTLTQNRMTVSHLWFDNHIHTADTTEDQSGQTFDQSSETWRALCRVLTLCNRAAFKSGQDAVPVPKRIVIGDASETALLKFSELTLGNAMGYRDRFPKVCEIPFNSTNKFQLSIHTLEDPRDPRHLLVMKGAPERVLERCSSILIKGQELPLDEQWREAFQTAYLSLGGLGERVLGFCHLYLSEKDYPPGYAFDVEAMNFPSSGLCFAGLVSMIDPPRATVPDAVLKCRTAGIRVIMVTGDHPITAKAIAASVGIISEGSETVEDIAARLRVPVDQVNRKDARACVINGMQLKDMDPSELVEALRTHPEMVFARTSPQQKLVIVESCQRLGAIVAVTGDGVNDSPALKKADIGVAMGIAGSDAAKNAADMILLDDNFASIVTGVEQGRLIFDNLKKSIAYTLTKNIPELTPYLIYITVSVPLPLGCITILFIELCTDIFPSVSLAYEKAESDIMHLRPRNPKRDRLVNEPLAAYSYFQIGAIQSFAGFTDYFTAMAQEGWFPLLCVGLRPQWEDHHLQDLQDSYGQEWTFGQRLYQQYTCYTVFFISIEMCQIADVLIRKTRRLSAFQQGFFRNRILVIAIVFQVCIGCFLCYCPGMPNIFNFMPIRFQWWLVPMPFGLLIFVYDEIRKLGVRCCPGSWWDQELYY
T1 sequence (P18597 whole entry partner): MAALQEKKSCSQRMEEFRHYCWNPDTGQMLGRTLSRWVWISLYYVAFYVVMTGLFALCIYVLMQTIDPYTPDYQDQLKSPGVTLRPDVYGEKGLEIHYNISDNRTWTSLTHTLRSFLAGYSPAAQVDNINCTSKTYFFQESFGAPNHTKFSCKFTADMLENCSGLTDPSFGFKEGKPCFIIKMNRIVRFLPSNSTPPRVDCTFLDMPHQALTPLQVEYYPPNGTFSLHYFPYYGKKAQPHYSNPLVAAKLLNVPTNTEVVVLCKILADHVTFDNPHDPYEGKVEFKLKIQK
Experimental: The H^+/K^+-ATPase inhibition reaction was performed in buffer (50 mM Tris-HCl, 5 mM magnesium chloride, 10 μM valinomycin, pH 6.5) with or without 20 mM potassium chloride (KCl), and inorganic phosphate (Pi) was detected using Malachite Green solution, made from 0.1% malachite green, 1.5% hexaammonium molybdate, and 0.2% Tween-20 in a ratio of 100:25:2 ([Skou, 1982]; [Feng et al., 2011]). Gastric H^+/K^+-ATPase was prepared from rabbit glands, as described previously ([Kondo et al., 2012]; [Arikawa et al., 2012]). The reaction occurred in a 96-well plate with a total volume of 50 µL/well, including buffer, enzyme, ATP, and drug. After 30 min at 37 °C for enzyme stability, ATP was added at 0.2 mM to start the reaction, which was optimized from the titration experiments. The reaction lasted 20 min at 37 °C, followed by the addition of Malachite Green for the colorimetric assay. The enzyme control wells contained the full enzyme system, while the buffer control wells contained only buffer to correct for background values. Absorbance was measured at 620 nm using a plate reader (SpectraMax M5). The inhibition rate was calculated using the following formula, accounting for the enzyme activity in the presence and absence of K^+: Inhibition Rate %=ODwith K+and enzyme,without drug−ODwith K+and enzyme,with drug /ODwith K+and enzyme,without drug−ODwithout K+and enzyme,without drug×100 where “OD with K^+ and enzyme, without drug” is the optical density measured at 620 nm in the presence of K^+ and enzyme, without the tested drug (enzyme control wells); “OD with K^+ and enzyme, with drug” is the optical density measured at 620 nm in the presence of K^+ and enzyme, with the tested drug; and “OD without K^+ and enzyme, without drug” is the optical density measured at 620 nm in the absence of K^+ and enzyme, without the tested drug (buffer control wells).

Inhibitory effect on H+/K+-ATPase in the absence of K+ (Gastric H+/K+-ATPase; absence of K+): No measurable inhibitory effect
IC50 (Gastric H+/K+-ATPase; in the presence of K+ (20 mM KCl), pH 6.5, read-out: IC50, H+/K+-ATPase inhibition): 17 nM and 17.1 nM
IC50 (Gastric H+/K+-ATPase; in the presence of potassium ions, rabbit gastric glands, read-out: IC50 (Figure 7A)): 17.1 nM
Compound: CNCc1cc(-c2ccccc2F)n(S(=O)(=O)c2cccnc2)c1 [vonoprazan, 1-[5-(2-fluorophenyl)-1-(pyridin-3-ylsulfonyl)-1H-pyrrol-3-yl]-N-methylmethanamine]
Total acidity inhibitory rate (%) [1]: 47%
